6 compounds from ChEMBL document CHEMBL1143282, “Synthesis and evaluation of photoreactive probes to elucidate iodide efflux in thyrocytes” (Bioorg Med Chem Lett, 2009) can be followed below.

Calls of active or inactive are those of the source. No cut-off for these calls is given here.

The test system of data set [1] is FRTL-5. The data set is described as follows: Iodide sequestering activity in rat FRTL5 cells assessed as enhancement of intracellular iodide entrapment at 20 uM after 120 mins in dark by scintillation counting relative to sodium perchlorate. In kind it is functional.
Data set [2] relates to FRTL-5. The data set can be described thus: Iodide sequestering activity in rat FRTL5 cells assessed as enhancement of intracellular iodide entrapment after 120 mins in dark by scintillation counting. The class given is functional, cell-based. As to conditions: for EC50: FRTL-5, 2 h.
The subject of data set [3] is FRTL-5. The data set is described as follows: Iodide sequestering activity in rat FRTL5 cells assessed as enhancement of intracellular iodide entrapment at 0.1 to 200 uM after 120 mins in dark by scintillation counting. In kind it is functional, cell-based.
The nature of data set [4]: Chemical stability assessed as photodecomposition-associated half life in MeCN using UV lamp. The class given is physicochemical. To be noted: MeCN solution irradiated with UV lamp.
Data set [5] deals with FRTL-5. The data set can be described thus: Iodide sequestering activity in rat FRTL5 cells assessed as enhancement of intracellular iodide entrapment at 50 uM after 120 mins in dark by scintillation counting relative to sodium perchlorate. In kind it is functional.
Data set [6] has as its system FRTL-5. The data set is described as follows: Iodide sequestering activity in rat FRTL5 cells assessed as enhancement of intracellular iodide entrapment at 200 uM after 120 mins in dark by scintillation counting relative to sodium perchlorate. In kind it is functional.
The nature of data set [7]: Chemical stability in MeCN/H2O at 4mCi/mL. In kind it is physicochemical.

As usually defined, the EC50 is the midpoint of the concentration-response curve. Regarding `C1=C(c2ccc(-c3ccccc3)cc2)N2CCN=C2S1`, the “fold change (FC)” value in data set [1] amounted to 2.5. In addition, the EC50 in data set [2] stood at 20 µM.
Turning to `FC(F)(F)C1(c2ccc(C3=CSC4=NCCN34)cc2)N=N1`, the outcome in data set [3] was inactive.
Consider `N#[N+]c1ccc(-c2ccc(C3=CSC4=NCCN34)cc2)cc1`, for which the outcome in data set [3] was inactive.
As to `[N-]=[N+]=Nc1ccc(-c2ccc(C3=CSC4=NCCN34)cc2)cc1`, the result in data set [3] was inactive.
As to `O=C(c1ccccc1)c1ccc(C2=CSC3=NCCN23)cc1`, the outcome in data set [3] was Active. In addition, in data set [4], the half-life turned out to be 12 min. In data set [5], the “fold change (FC)” value is reported as 1.8. Besides, in data set [2], the Activity result was “Dose-dependent effect” and the EC50 was 50 µM. The “fold change (FC)” value in data set [6] was determined as 2.5.
`[3H]C1=C(c2ccc(C(=O)c3ccccc3)cc2)N2CCN=C2S1` came in with a Stability in data set [7] of 6 months.
